The results in this text go back to ChEMBL document CHEMBL5053547, “Targeting of the FOXM1 Oncoprotein by E3 Ligase-Assisted Degradation” (J Med Chem, 2021).

Data set [1] has as its system MDA-MB-231. As to the kind of experiment: Antiproliferative activity against human MDA-MB-231 cells assessed as growth inhibition by MTT assay. The data set is classed as functional.
The target of data set [2] is T1, Forkhead box protein M1 (Homo sapiens, UniProt Q08050).
T1 sequence (Q08050 whole entry): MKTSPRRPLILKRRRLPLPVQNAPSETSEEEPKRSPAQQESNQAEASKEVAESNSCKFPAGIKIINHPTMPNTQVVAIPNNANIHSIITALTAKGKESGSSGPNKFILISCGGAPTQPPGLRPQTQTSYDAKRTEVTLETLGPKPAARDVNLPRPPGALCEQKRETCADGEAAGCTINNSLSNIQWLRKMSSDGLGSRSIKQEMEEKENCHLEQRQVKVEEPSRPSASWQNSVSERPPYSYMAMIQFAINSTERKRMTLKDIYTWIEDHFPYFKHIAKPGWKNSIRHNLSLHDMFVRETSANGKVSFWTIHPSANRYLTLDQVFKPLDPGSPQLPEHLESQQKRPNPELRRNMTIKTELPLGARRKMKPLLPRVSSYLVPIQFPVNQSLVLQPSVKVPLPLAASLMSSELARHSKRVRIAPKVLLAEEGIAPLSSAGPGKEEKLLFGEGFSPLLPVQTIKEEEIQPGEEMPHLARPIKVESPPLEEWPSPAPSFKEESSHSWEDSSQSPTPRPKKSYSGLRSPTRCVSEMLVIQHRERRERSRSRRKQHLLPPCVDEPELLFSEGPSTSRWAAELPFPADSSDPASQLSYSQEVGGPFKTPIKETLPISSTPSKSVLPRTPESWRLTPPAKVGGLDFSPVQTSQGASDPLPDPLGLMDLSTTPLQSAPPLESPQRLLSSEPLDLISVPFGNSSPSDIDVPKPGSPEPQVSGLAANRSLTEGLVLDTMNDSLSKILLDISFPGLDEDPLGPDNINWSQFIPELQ
As to the kind of experiment: Inhibition of recombinant FOXM1-DBD (unknown origin) binding to DNA measured after 30 mins by biochemical EMSA assay. (Mobility shift assays separate free from complexed probe on a gel.)

Data set [3] deals with MDA-MB-231. The experiment in a line: Reduction in beta-catenin nuclear accumulation in human MDA-MB-231 cells at 20 uM incubated for 16 hrs by Western blot analysis. It counts as functional, cell-based. On the technique in general: A western blot detects proteins with antibodies after separation by electrophoresis.
Data set [4] has as its system MDA-MB-231. As to the kind of experiment: Induction of cell cycle arrest in human MDA-MB-231 cells assessed as accumulation at G0/G1 phase at 20 uM incubated for 16 hrs by flow cytometry assay (reference value: 65.49%). The data set is classed as functional. (Flow cytometry measures light scatter and fluorescence of single cells or particles in a stream.)
The subject of data set [5] is MDA-MB-231. The experiment in a line: Induction of cell cycle arrest in human MDA-MB-231 cells assessed as accumulation at S phase at 20 uM incubated for 16 hrs by flow cytometry assay (reference value: 22.19%). The data set is classed as functional.
Data set [6] relates to MDA-MB-231. As to the kind of experiment: Induction of cell cycle arrest in human MDA-MB-231 cells assessed as accumulation at G2/M phase at 20 uM incubated for 16 hrs by flow cytometry assay (reference value: 12.30%). The data set is classed as functional.
The test system of data set [7] is MDA-MB-231. As to the kind of experiment: In vivo antitumor activity against human MDA-MB-231 cells xenografted in mouse assessed as tumor growth inhibition at 10 mg/kg/day administered through tail vain for 12 consecutive days. It counts as functional. The settings on record: route iv, read-out: TGI.
The test system of data set [8] is MDA-MB-231. The experiment in a line: Antitumor activity against human MDA-MB-231 cells xenografted in mouse assessed as tumor shrinkage at 10 mg/kg/day administered through tail vain for 12 consecutive days by H and E staining based histological analysis. It counts as functional, organism-based. The following applies: route iv.
Data set [9] has as its system MDA-MB-231. The experiment in a line: Antitumor activity against human MDA-MB-231 cells xenografted in mouse assessed as […] by measuring Ki67 labelling at 10 mg/kg/day administered through tail vain for 12 consecutive days by immunohistochemical analysis. The data set is classed as functional, organism-based. The settings on record: route iv.
For data set [10], the system named is MDA-MB-231. As to the kind of experiment: Reduction in FOXM1 expression in mouse xenografted with human MDA-MB-231 cells at 10 mg/kg/day administered through tail vain for 12 consecutive days by Western blot analysis. The data set is classed as functional, organism-based. The following applies: route iv.
The subject of data set [11] is MDA-MB-231. As to the kind of experiment: Antineoplastic effect in human MDA-MB-231 cells xenografted in mouse assessed as reduction in tumor volume at 10 mg/kg/day administered through tail vain for 12 consecutive days. The data set is classed as functional, organism-based. The settings on record: route iv.
Data set [12] concerns MDA-MB-231. The experiment in a line: Downregulation of CDC25B expression in human MDA-MB-231 cells at 20 uM incubated for 16 hrs by Western blot analysis. The data set is classed as functional, cell-based.
The subject of data set [13] is MDA-MB-231. The experiment in a line: Downregulation of Cyclin B expression in human MDA-MB-231 cells at 20 uM incubated for 16 hrs by Western blot analysis. It counts as functional, cell-based.
Data set [14] concerns MDA-MB-231. As to the kind of experiment: Anti-invasive activity against human MDA-MB-231 cells assessed as decrease in Snail gene expression incubated for 16 hrs by qRT-PCR analysis. It counts as functional, cell-based. The settings on record: dose 10-20 µM.
Data set [15] deals with MDA-MB-231. The experiment in a line: Anti-invasive activity against human MDA-MB-231 cells assessed as decrease in Slug gene expression incubated for 16 hrs by qRT-PCR analysis. The data set is classed as functional, cell-based. The following applies: dose 10-20 µM.
Data set [16] concerns MDA-MB-231. As to the kind of experiment: Anti-invasive activity against human MDA-MB-231 cells assessed as decrease in MMP2 gene expression incubated for 16 hrs by qRT-PCR analysis. The data set is classed as functional, cell-based. The settings on record: dose 10-20 µM.
For data set [17], the system named is MDA-MB-231. The experiment in a line: Anti-invasive activity against human MDA-MB-231 cells assessed as decrease in Vimentin gene expression incubated for 16 hrs by qRT-PCR analysis. It counts as functional, cell-based. The settings on record: dose 10-20 µM.
The subject of data set [18] is MDA-MB-231. The experiment in a line: Anti-invasive activity against human MDA-MB-231 cells assessed as increase in E-cadherin mRNA expression incubated for 16 hrs by qRT-PCR analysis. It counts as functional, cell-based. The settings on record: dose 10-20 µM.
Data set [19] concerns MDA-MB-231. The experiment in a line: Anti-invasive activity against human MDA-MB-231 cells assessed as reduction migration incubated by transwell assay. The data set is classed as functional, cell-based. The following applies: dose 10-20 µM.
The subject of data set [20] is MDA-MB-231. As to the kind of experiment: Anti-invasive activity against human MDA-MB-231 cells assessed as reduction invasion incubated by transwell assay. The following applies: dose 10-20 µM. It counts as functional, cell-based.
The test system of data set [21] is Mus musculus. The experiment in a line: Toxicity in mouse xenografted with human MDA-MB-231 cells assessed as change in body weight at 10 mg/kg/day administered through tail vain for 12 consecutive days. The data set is classed as organism-based. The following applies: in vivo, iv.
For data set [22], the system named is MCF-10A. As to the kind of experiment: Cytotoxicity against human MCF-10A cells assessed as cell viability measured upto 30 uM. It counts as cell-based.
The test system of data set [23] is MCF7. As to the kind of experiment: Antiproliferative activity against human MCF7 cells assessed as cell viability measured at 10 uM. The data set is classed as functional, cell-based.
Data set [24] in a line: Stability in mouse plasma assessed as half life by LC/MS analysis. The data set is classed as ADME, cell-free.
A short description of data set [25]: Stability in rat plasma assessed as half life by LC/MS analysis. It counts as ADME, cell-free.
Data set [26] is described as follows: Stability in human plasma assessed as half life by LC/MS analysis. The data set is classed as ADME, cell-free.

Calls of active or inactive are those of the source. The calls are words filed in the database; no cut-off is given here.

Regarding `Nc1c(C(=O)Nc2ccc(F)cc2)sc2nc(-c3ccc(OCC(=O)NCCOCCOCCNc4cccc5c4C(=O)N(C4CCC(=O)NC4=O)C5=O)cc3)cc(C(F)(F)F)c12` (centres undefined), the GI50 (as a rule, the concentration at which growth is held to half of that of the control) in data set [1] is above 50 µM.
Consider `Nc1c(C(=O)Nc2ccc(F)cc2)sc2nc(-c3cccs3)cc(C(F)(F)F)c12`, for which the GI50 in data set [1] was determined as 25.6 µM. Besides, the IC50 (as a rule, the concentration that gives 50% inhibition) in [2] turned out to be 28.4 µM. The result in [3] was inactive. Besides, the Activity in data set [4] amounted to 57.52%; in data set [5], 16.17%; in data set [6], 16.32%. Besides, in data set [7], the inhibition in vivo at 10 mg/kg/day came out at 47.8%. Besides, the outcome in [8], in data set [9] and in data set [10] was Active.
With `Nc1c(C(=O)Nc2ccc(F)cc2)sc2nc(-c3ccc(OCC(=O)NCCCOCCOCCOCCCNC(=O)COc4cccc5c4C(=O)N(C4CCC(=O)NC4=O)C5=O)cc3)cc(C(F)(F)F)c12` (centres undefined), the GI50 in data set [1] amounted to 16.2 µM. Besides, the result in data set [11], in data set [12], in [13], in data set [3], in data set [8] and in data set [9] was Active. For the same compound, the outcome in data set [10] and in data set [23] was Active. The Activity in data set [4] was 57.92%; in data set [5], 21.75%; in [6] it was 20%; in [14], “Dose-dependent effect”; in data set [15] it was “Dose-dependent effect”; in data set [16] it was “Dose-dependent effect”. Further, the Activity entry in data set [17] was “Dose-dependent effect”; in [18], “Dose-dependent effect”; in data set [19], “Dose-dependent effect”; in data set [20], “Dose-dependent effect”; in [21] it was “Non-Toxic”; in [22] it was “Non-Toxic”. For the same compound, the inhibition in vivo at 10 mg/kg/day in data set [7] was 78.2%. Moreover, the results for the half-life in data set [24], in data set [25] and in [26] were above 2 h, 0.588 h and 1.74 h, respectively.
Regarding `Nc1c(C(=O)Nc2ccc(F)cc2)sc2nc(-c3ccc(OCC(=O)NCCCNc4cccc5c4C(=O)N(C4CCC(=O)NC4=O)C5=O)cc3)cc(C(F)(F)F)c12` (centres undefined), the GI50 in [1] turned out to be 45.4 µM.
`Nc1c(C(=O)Nc2ccc(F)cc2)sc2nc(-c3ccc(OCC(=O)NCCOCCOCCNC(=O)COc4cccc5c4C(=O)N(C4CCC(=O)NC4=O)C5=O)cc3)cc(C(F)(F)F)c12` (centres undefined): the GI50 in [1] was determined as 19.5 µM.
With `CN1C(=O)CCC(N2C(=O)c3cccc(OCC(=O)NCCCOCCOCCOCCCNC(=O)COc4ccc(-c5cc(C(F)(F)F)c6c(N)c(C(=O)Nc7ccc(F)cc7)sc6n5)cc4)c3C2=O)C1=O` (centres undefined), the outcome in data set [12], in data set [13] and in [3] was inactive. For the same compound, the Activity in data set [4] was 57.44%; in data set [5], 24.35%; in [6] it was 18.2%.
Take `Nc1c(C(=O)Nc2ccc(F)cc2)sc2nc(-c3ccc(OCC(=O)NCCCOCCOCCOCCCNc4cccc5c4C(=O)N(C4CCC(=O)NC4=O)C5=O)cc3)cc(C(F)(F)F)c12` (centres undefined): in data set [1], the GI50 is above 50 µM.
As for `Nc1c(C(=O)Nc2ccc(F)cc2)sc2nc(-c3ccc(OCC(=O)NCCCCCCCCNc4cccc5c4C(=O)N(C4CCC(=O)NC4=O)C5=O)cc3)cc(C(F)(F)F)c12` (centres undefined), the concentration for 50% growth inhibition (GI50) in data set [1] was above 50 µM.
Turning to `Nc1c(C(=O)Nc2ccc(F)cc2)sc2nc(-c3ccc(OCC(=O)NCCCCCCCCNC(=O)COc4cccc5c4C(=O)N(C4CCC(=O)NC4=O)C5=O)cc3)cc(C(F)(F)F)c12` (centres undefined), the GI50 in data set [1] was found to be 38.6 µM.
Still for that read-out and setting: then `COc1ccc(-c2cc(C(F)(F)F)c3c(N)c(C(=O)Nc4ccc(F)cc4)sc3n2)cc1`, with 27.3 µM; and `Nc1c(C(=O)Nc2ccc(F)cc2)sc2nc(-c3ccc(OCC(=O)NCCCNC(=O)COc4cccc5c4C(=O)N(C4CCC(=O)NC4=O)C5=O)cc3)cc(C(F)(F)F)c12` (centres undefined), with 17.4 µM.
